# Assay results from patent US20210260008A1, “COMBINATION THERAPY FOR TREATING CANCER” (THE JOHNS HOPKINS UNIVERSITY, priority 2018, published 2021).
# Where two headings read alike, the source gives them in different places.
# Key:
# VDID8 cells = test: HPLC analysis of polyamine levels in cultured, treated VDID8 cells; format: cell-based, mouse; details: in vitro; 500 nM AZA 10 days, 5 mM DFMO 3 days
# Procedure: (§1) FIG. 6A-6B. DFMO treatment of VDID8 cells in vitro reduces putrescene and spermidine levels. FIG. 6A: VDID8 cells were cultured in 10% FBS RPMI+gentamicin for one week prior to beginning 10 day treatment. Cells were treated with 500 nM AZA/saline for 10 days and 5 mM DFMO/water for 3 days. AZA+DFMO cells were treated with 500 nM AZA for the first 7 days, and 500 nM AZA + 5 mM DFMO for the final 3 days of treatment. High-performance liquid chromatography (HPLC) analysis of polyamine levels in cultured, treated VDID8 cells are shown. n=3. FIG. 6B: Bulk ascites fluid was collected from individual mice treated with DFMO, AZA, or AZA+DFMO. Bulk ascites cells were lysed and washed and remaining cells were prepped for HPLC analysis of polyamine levels. n=4-10. All data were tested for a Gaussian distribution and found to be normal using Shapiro-Wilk test. Significance was determined using a one way ANOVA.
# (§2) Polyamines. Polyamines were analyzed via high-performance liquid chromatography (HPLC) as previously described (36).
# [1] = system: immune cells in tumor associated ascites (tumor microenvironment); test: Flow cytometry of immune cell populations in tumor associated ascites of VDID8 mice; format: in vivo, mouse; details: for Percentage of M1 macrophages (MHCII+ CD206−) / total numbers of lymphocytes in ascites: week 5; for T cell, NK cell, and IFNγ+ lymphocyte populations: week 5 post tumor injection; for MHC II positive (MHCII Hi, M1-like) macrophages: compared to vehicle; for total numbers of lymphocytes in ascites: compared to vehicle / single agents
# Procedure: Ascites tissue harvest and processing. When ascites fluid is collected from the mice, the cells obtained represent the tumor microenvironment and can be further analyzed to help illustrate the mixed population of cells surrounding the tumor. Ascites was collected, filtered, incubated in ACK buffer (Quality Biological) to lyse red blood cells, and washed. The mononuclear cells collected were then cultured for four hours in RPMI (Corning) with 10% FBS in the presence of phorbol 12-myristate 13-acetate (PMA) and ionomycin to stimulate cells, and brefeldin A and monensin (Invitrogen 00-4975-93) to cause aggregation of secreted proteins inside the cell.
# Flow cytometry. Cells were washed and blocked with FcR Blocking Reagent (Miltenyi Biotec 130-092-575) and stained for cell-surface markers including Live/Dead (eBioscience 65-0865-14), CD45 (BD Biosciences 563891), CD3 (BD Biosciences 560527), CD4 (BD Biosciences 563331), CD8 (BD Biosciences 563152), NK1.1 (BD Biosciences 562921), F4/80 (BioLegend 123113), CD11b (BioLegend 101222), MHC II (isotype control 400627; BioLegend 107619), CD206 (BioLegend 141708), CD11c (BD Biosciences 564079), Ly6C (BD Biosciences 562728), Ly6G (BD Biosciences 563005), CD80 (BD Biosciences 553769), and CD86 (BD Biosciences 558703). Cells were permeabilized and stained for intracellular IFNγ (isotype control 554686; BD Biosciences 554413). Flow cytometry acquisition was performed on an LSR II cytometer (BD Biosciences), and data were analyzed using FlowJo software version 10.2.
# Flow sorting. Lysed and processed bulk ascites cells were blocked with FcR Blocking Reagent (Miltenyi Biotec 130-092-575) and stained for cell-surface markers including Live/Dead (eBioscience 65-0865-14), CD45 (BD Biosciences 563891), F4/80 (BioLegend 123113), CD11b (BioLegend 101222), MHC II (isotype control 400627; BioLegend 107619), CD206 (BioLegend 141708), and CD11c (BD Biosciences 564079). Prepared cells were suspended in PBS and sorted immediately on a BSL-2 FACSAria II. M1 macrophages were sorted on a gate as follows: CD45+ L/D− F4\80+ CD11b+ MHC II+ CD206− CD11c−. M2 macrophages were sorted on a gate as follows: CD45+ L/D− F4\80+ CD11b+ MHC II− CD206+ CD11c−.
# bulk ascites cells = test: HPLC analysis of polyamine levels in bulk ascites cells from treated mice; format: in vivo, mouse; details: bulk ascites cells from treated animals
# Procedure: as §1, §2
# 2208L breast tumors = test: 2208L breast tumor mouse model
# Source text: Significance determined using log-rank Mantel-Cox test.
# Tumor size as measured once weekly in mice bearing 2208L breast tumor xenografts (week 6 post tumor implant).
# Mature or activated dendritic cells in the tumor microenvironment of the 2208L breast cancer model, shown as a percentage of dendritic cells.
# [2] = system: VEGF-β-Defensin ID8 (VDID8) syngeneic mouse ovarian surface epithelial (MOSE) cells; test: VDID8 syngeneic ovarian cancer mouse model: tumor burden (ascites volume) and survival; details: for median survival / overall survival / tumor burden (ascites volume): VDID8 mice; for median survival / overall survival: AZA 0.5 mg/kg i.p., 2% DFMO in water; for tumor burden (ascites volume): treated vs vehicle; for tumor burden (ascites volume) compared with combination therapy: second ascites drain, week 5 post tumor injection
# Procedure: Mice were injected i.p. with 250,000 VEGF-DEFB ID8 MOSE cells (VDID8). 0.5 mg/kg of AZA was given i.p. 5 days a week, every other week. 2% DFMO was provided in water bottles. Mice were treated throughout the duration of the experiment. Upon 25-30% weight gain, ascites fluid was drained from mice and processed for analysis of the tumor microenvironment. FIG. 1B: Tumor burden, represented by ascites volume, 5 weeks post tumor injection. Data is from the second ascites drain procedure, the first was 4 weeks post tumor injection. Representative data (mean +/−SEM shown). n=10; four biological replicates. Data were tested for a Gaussian distribution using Shapiro-Wilk test and found not to be normal. Significance was determined using Kruskal Wallis test; statistical outliers removed using Peirce's criterion. FIG. 1C: Representative survival curve (median survival in days); n=10; four biological replicates. Significance determined using log-rank Mantel-Cox test.
# Animals. Female C57BL/6NHsd wild-type (WT) mice (7-8 wk old) were purchased from Envigo International Holdings, Inc. (Indianapolis, Ind.). Mice were housed at the Johns Hopkins Kimmel Cancer Center Animal Resources Core and cared for in accordance with the policies of The Johns Hopkins University Animal Care and Use Committee and our approved animal protocol.
# Syngeneic mouse model. 250,000 VEGF-β-Defensin ID8 (VDID8) syngeneic mouse ovarian surface epithelial (MOSE) cells were injected intraperitoneally into wild-type (WT) C57BL/6 mice.
# Mice were treated with 0.5 mg/kg AZA/saline, Monday through Friday, every other week and continuous 2% DFMO in drinking water.
# Mice were treated IP with AZA (0.5 mg/kg) or saline vehicle, DFMO (2% in water), or combination AZA and DFMO beginning three days post tumor injection (FIG. 1A).
# [3] = cited from earlier work
# [4] = system: LPS-stimulated macrophages; details: LPS-stimulated macrophages in vitro (ref. 48); cited from earlier work
SMILES,putrescine and spermidine levels (VDID8 cells),total macrophage populations in the tumor microenvironment ([1]; ascites),Percentage of M1 macrophages (MHCII+ CD206−) ([1]; ascites),"T cell, NK cell, and IFNγ+ lymphocyte populations ([1]; ascites)","MHC II positive (MHCII Hi, M1-like) macrophages [1]",total numbers of lymphocytes in ascites [1],"polyamine levels (putrescine, spermidine, spermine) (bulk ascites cells)",mature or activated dendritic cells as a percentage of dendritic cells (2208L breast tumors; tumor microenvironment of 2208L model),tumor burden / tumor size (2208L breast tumors; weeks 3 through 6 post tumor implant surgery),median survival [2],overall survival [2],tumor burden (ascites volume) [2],tumor burden (ascites volume) compared with combination therapy [2],"solubility ([3]; acetone, ethanol and methyl ketone)",solubility ([3]; dimethylsulfoxide (DMSO)),"solubility ([3]; ethanol/water (50/50), propylene glycol and polyethylene glycol)","solubility ([3]; water, water-saturated octanol, 5% dextrose in water, N-methyl-2-pyrrolidone, normal saline and 5% Tween 80 in water)","tumor volume (2208L breast tumors; measured once weekly, week 6 post tumor implant)",NO production [4]
"Nc1ncn([C@@H]2O[C@H](CO)[C@@H](O)[C@H]2O)c(=O)n1 [AZA, 4-amino-1-β-D-ribofuranozyl-s-triazin-2(1H)-one]",stimulatory effect,consistently decreased,increased,significant increases,increased,significantly increased,No significant changes,increases activation,no impact on tumor size,approximately 44 days,significantly increased survival,decreased tumor burden,higher tumor burden,insoluble,soluble,slightly soluble,sparingly soluble,–,–
"NCCCC(N)(C(=O)O)C(F)F (centres unmarked) [DFMO, 2-(difluoromethyl)-2,5-diaminopentanoic acid]",significant decrease,–,increased,significant increases,increased,significantly increased,decreased (although not significantly),–,–,approximately 44 days,significantly increased survival,decreased tumor burden,higher tumor burden,–,–,–,–,maintains low tumor volumes,potentiate NO production
